Assay results: patent publication US9359371B2, “Bicyclic substituted pyrimidine compounds” (Xuanzhu Pharma Co., Ltd., priority 2012, dated 2016)
pIC50: −log10 of the molar value. Read-outs that look alike come from different tables or passages of the source.

Experiments:
[1] = in human; cited from earlier work
[2] = tested on: PDE-6; settings: cited from earlier work
[3] = Pharmacokinetics (PK) in SD rats; format: in vivo; settings: rat; for AUC(0-inf) / Cmax / Tmax / bioavailability / half-life: SD, plasma; for bioavailability: read-out: F % (absolute bioavailability)
[4] = target: hERG channel (Homo sapiens (Human), UniProt Q12809); experiment: hERG potassium channel whole-cell patch clamp on CHO-K1 cell line
Sequence of hERG channel (Q12809 whole entry): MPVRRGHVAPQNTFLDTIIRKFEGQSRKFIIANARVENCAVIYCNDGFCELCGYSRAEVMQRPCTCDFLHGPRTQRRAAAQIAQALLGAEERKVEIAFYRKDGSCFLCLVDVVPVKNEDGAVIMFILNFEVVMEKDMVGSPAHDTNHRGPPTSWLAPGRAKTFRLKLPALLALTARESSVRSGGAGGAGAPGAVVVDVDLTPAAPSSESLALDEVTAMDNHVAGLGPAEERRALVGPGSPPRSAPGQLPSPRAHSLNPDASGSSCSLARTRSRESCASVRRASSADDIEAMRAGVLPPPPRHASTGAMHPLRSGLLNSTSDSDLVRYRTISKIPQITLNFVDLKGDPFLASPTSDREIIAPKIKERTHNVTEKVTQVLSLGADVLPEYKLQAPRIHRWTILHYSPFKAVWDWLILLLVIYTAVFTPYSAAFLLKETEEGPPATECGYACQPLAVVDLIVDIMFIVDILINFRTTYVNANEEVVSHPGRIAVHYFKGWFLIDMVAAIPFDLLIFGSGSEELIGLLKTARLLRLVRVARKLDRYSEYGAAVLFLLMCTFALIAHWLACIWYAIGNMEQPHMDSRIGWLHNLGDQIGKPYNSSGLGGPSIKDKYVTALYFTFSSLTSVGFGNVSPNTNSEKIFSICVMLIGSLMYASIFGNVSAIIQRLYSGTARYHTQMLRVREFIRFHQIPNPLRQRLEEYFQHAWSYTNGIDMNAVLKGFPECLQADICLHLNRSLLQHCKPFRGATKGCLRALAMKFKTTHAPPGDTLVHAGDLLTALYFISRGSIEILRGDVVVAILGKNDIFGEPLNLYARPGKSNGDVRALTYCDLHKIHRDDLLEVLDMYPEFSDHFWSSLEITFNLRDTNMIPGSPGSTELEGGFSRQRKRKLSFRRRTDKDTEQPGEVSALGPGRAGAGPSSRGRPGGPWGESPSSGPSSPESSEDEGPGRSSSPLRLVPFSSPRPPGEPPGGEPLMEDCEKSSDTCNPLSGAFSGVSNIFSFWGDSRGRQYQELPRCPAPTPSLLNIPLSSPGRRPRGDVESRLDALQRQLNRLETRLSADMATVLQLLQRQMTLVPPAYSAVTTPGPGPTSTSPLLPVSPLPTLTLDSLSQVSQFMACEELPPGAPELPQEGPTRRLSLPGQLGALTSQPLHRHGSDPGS
Description: Experiment 8: Detection of Inhibitory Effect of the Compounds of the Present Invention on hERG Potassium Channel by the Patch Clamp Method
Rapidly activated human delayed rectifying outward potassium current (IKr) is mainly mediated by hERG ion channel and is involved in repolarization of human cardiac muscle cell. Clinically, blocking of the current by a drug is the main cause of QT interval prolongation syndrome, acute arrhythmia and even sudden death. The main purpose of the experiment is to test the blocking effect of the compounds of the present invention on hERG channel, and to determine the half maximal inhibitory concentration (IC50) of the compounds.
The experiment mainly included: (1) recording hERG current by patch clamp technique on CHO-K1 cell line which stably expressed hERG channel; (2) calculating the Inhibition rate of each concentration according to hERG tail current; (3) testing each compound at 5 concentrations to calculate IC50; (4) testing 2 cells at each concentration; (5) a positive control.
The structures and synthesis of Compound 88 (WO-88) and Compound 93 (WO-93) as disclosed in WO200119802A were described in Example 55 and Example 56.
Drug for positive control: Amitriptyline hydrochloride (Sigma-Aldrich, an international standard blocker for hERG channel)
Pippette Solution (in mM): KCl 120, KOH 31.25, CaCl2 5.374, MgCl2 1.75, Ethylene glycol-bis(β-aminoethyl ether)-N,N,N′,N′-tetraacetic acid (EGTA) 10, HEPES 10, Na2-ATP 4, adjusted to a pH of 7.2 with 1N potassium hydroxide; adjusted to an osmotic pressure of 280-290 mOsm; preserved at −20° C. after filtration.
Preparation of compounds: Some of the compounds of the present invention and Amitriptyline hydrochloride as the positive control drug were separately dissolved in 100% DMSO (Merck, 61850125001730), then prepared into stock solutions of 30 mM. Before the experiment, the above stock solutions were diluted with DMSO to a concentration of 1000-fold of the experimental concentration. Then the diluted solutions were further diluted with extracellular solution by 1:1000 to the required experimental concentration. The final concentration of DMSO in the extracellular solution was kept as 0.1%.
Stable cell line CHO-hERG was purchased from AVIVA Company. The hERG current on the cell line was recorded. For the purpose of quality control, the smallest seal resistance was no less than 500 MΩ, and the hERG current was no less than 0.4 nA.
The hERG current was recorded by a whole-cell patch clamp technique. Cell suspension was added into a 35-mm culture dish. The culture dish was placed on the objective table of an inverted microscope. Upon cell attachment, perfusion was conducted with the extracellular solution at a flow rate of 1-2 mL/min.
Glass microelectrode with the pipette tip resistance of 2-5 MΩ was controlled by a microelectrode puller via a two-step process. After the whole-cell record was set up, the clamp potential was kept at −80 mV. The cell was depolarized to +60 mV by applying a voltage stimulus, and then repolarized to −50 mV to obtain the hERG tail current. Recordation was conducted after the current was stable. The extracellular perfusion was started from the lowest concentration, with 5-10 min for each concentration until the current was stable, and then conducted with the next concentration.
Stimulus payment and signal collection were performed by A/D-D/A conversion using Digidata 1440 (Molecular Devices) and pCLAMP software (Version 10.2, Molecular Devices). Signal amplification was performed on a patch clamp amplifier (Multiclamp 700B, Molecular Devices), with a filter of 1 KHz. Further data analysis and curve fitting were conducted by Clampfit (version 10.2, Molecular Devices) and Prism. The data were presented as mean value±standard deviation.
In the process of data analysis, the peak value and the baseline of the tail current were corrected when determining the blocking effect on hERG.

[5] = tested on: length of New Zealand rabbit's penis; experiment: Pharmacological activity in vivo (intravenous injection), rabbit penis length; set-up: species or system New Zealand rabbits; settings: iv 10 mg/kg, sodium nitroprussiate 0.2 mg/kg iv 5 min after, 0-120 min
Method: Experiment 5: Assay of Pharmacological Activity In Vivo (Intravenous Injection)
After accommodating with the environment, the New Zealand rabbits were grabbed everyday. When the rabbits were accustomed to the repeated grabbing, drug administration was began. The animals were randomly divided into groups by weight. The test compounds were separately dissolved in menstruum. […] The corresponding test compounds were injected into the auricular veins of animals of each group. The dosage of the compounds in Table 5 was 10 mg/kg, and the administration volume was 1 mL/kg. The dosage of the compounds in Table 6 was 10 mg/kg, and the administration volume was 2 mL/kg. 0.2 mg/kg sodium nitroprussiate was intravenously injected into the rabbits 5 min after the administration of the test compounds, with the administration volume of 0.5 mL/kg.
The length of the rabbit's penis was measured with a digital caliper before and 10, 15, 30, 50, 60, 90 and 120 min after the administration. Touch of the rabbit's penis by the caliper was avoided during the measurements.

[6] = target: PDE-11 (Homo sapiens (Human), UniProt Q9HCR9); settings: cited from earlier work
Sequence of PDE-11 (Q9HCR9 whole entry): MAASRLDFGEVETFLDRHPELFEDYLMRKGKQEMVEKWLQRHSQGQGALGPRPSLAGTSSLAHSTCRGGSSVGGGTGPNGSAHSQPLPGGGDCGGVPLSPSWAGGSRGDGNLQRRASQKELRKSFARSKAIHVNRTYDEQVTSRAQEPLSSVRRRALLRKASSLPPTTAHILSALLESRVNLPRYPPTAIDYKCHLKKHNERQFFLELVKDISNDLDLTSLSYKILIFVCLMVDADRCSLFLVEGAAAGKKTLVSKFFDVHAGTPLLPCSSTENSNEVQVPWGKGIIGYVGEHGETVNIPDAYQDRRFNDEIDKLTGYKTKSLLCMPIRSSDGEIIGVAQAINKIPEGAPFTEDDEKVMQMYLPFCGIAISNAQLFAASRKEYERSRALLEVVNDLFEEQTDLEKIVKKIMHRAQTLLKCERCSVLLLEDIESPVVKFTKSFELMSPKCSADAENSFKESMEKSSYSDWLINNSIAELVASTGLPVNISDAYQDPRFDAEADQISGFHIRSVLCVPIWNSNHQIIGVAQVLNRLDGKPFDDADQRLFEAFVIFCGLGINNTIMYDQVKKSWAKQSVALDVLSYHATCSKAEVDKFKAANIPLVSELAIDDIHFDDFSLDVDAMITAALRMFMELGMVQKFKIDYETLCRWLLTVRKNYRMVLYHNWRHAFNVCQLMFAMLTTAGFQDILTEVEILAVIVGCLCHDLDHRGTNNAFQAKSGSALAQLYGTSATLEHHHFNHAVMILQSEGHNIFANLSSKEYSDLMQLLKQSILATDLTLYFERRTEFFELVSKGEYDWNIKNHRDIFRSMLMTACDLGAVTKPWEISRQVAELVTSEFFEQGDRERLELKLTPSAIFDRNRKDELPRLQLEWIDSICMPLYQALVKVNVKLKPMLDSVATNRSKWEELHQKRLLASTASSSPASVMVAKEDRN

[7] = tested on: length of New Zealand rabbit's penis; experiment: Pharmacological activity in vivo (oral administration, 100 mg/kg), rabbit penis length; set-up: species or system New Zealand rabbits; settings: Table 7; oral 100 mg/kg; 0-240 min
Description: Experiment 6: Assay of Pharmacological Activity In Vivo (Oral Administration)
After accommodating with the environment, the New Zealand rabbits were grabbed everyday. When the rabbits were accustomed to the repeated grabbing, drug administration was began. The animals were randomly divided into groups by weight, with 6 rabbits of each group. The test compounds were separately dissolved in menstruum. […] The corresponding test compounds were orally administrated to animals of each group. The dosage was 100 mg/kg, and the administration volume was 1 mL/kg. The length of the rabbit's penis was measured with a digital caliper before and 5, 10, 15, 30, 50, 60, 90, 120, 180 and 240 min after the administration. Touch of the rabbit's penis by the caliper was avoided during the measurements.

[8] = target: PDE-5A enzyme (Homo sapiens (Human), UniProt O76074); experiment: Caliper Mobility-Shift PDE-5A Assay; format: biochemical; settings: Table 1; Avanafil value is the control
[9] = target: PDE-5 enzyme (human blood platelets) (Homo sapiens (Human), UniProt O76074); experiment: PDE-5 enzyme assay, [3H]cGMP; format: biochemical; settings: for pIC50: Table 2, human blood platelet enzyme, read-out: IC50 on PDE-5; for IC50: Table 4-1, read-out: PDE-5 (IC50 nM)
[10] = tested on: length of New Zealand rabbit's penis; experiment: Pharmacological activity in vivo (oral administration, 70 mg/kg, with SNP), rabbit penis length; set-up: species or system New Zealand rabbits; settings: Table 8; oral 70 mg/kg; SNP 0.2 mg/kg iv 60 min after; 0-180 min
Method: Experiment 7: Assay of Pharmacological Activity In Vivo (Oral Administration)
After accommodating with the environment, the New Zealand rabbits were grabbed everyday. When the rabbits were accustomed to the repeated grabbing, drug administration was began. The animals were randomly divided into groups by weight, with 6 rabbits of each group. […] The corresponding test compounds were orally administrated to animals of each group. The dosage was 70 mg/kg, and the administration volume was 1 mL/kg. SNP (0.2 mg/kg, 0.5 mL/kg) was injected into the auricular veins of rabbits 60 min after the administration of the test compounds. The length of the rabbit's penis was measured with a digital caliper before and 10, 15, 30, 50, 60, 65, 70, 75, 90, 110, 120 and 180 min after the administration. Touch of the rabbit's penis by the caliper was avoided during the measurements.

[11] = tested on: bovine retinal PDE-6; experiment: PDE-6 enzyme assay, [3H]cGMP; format: biochemical; settings: for selectivity on PDE-5 enzyme versus PDE-6 (in words): selectivity >70 called high
Method: (§1) Experiment 3: Measurement of Enzyme Activity on PDE-6 Enzyme In Vitro
(§2) Source of enzyme: PDE-6, bovine retinal PDE-6
(§3) Method: The test compound or solvent was incubated at 25° C. for 15 min with enzyme solution (0.2 μg/mL) in Tris-HCl buffer of pH 7.5. 100 μM cGMP and 0.03 μM [^3H] cGMP were then added to activate the reaction. The mixture was incubated for 20 min. The reaction was stopped at 100° C. By addition of snake venom nucleotidase, the product [^3H] GMP was converted into [^3H] Guanosine, which was separated with AG1-X2 resin. The amount of [^3H] Guanosine was measured.

[12] = target: bovine retinal PDE-6 (Bos taurus (Bovine), UniProt P11541+P23439); experiment: PDE-6 enzyme assay, [3H]cGMP; format: biochemical; settings: for IC50: Table 4-1, read-out: PDE-6 (IC50 nM); for pIC50: Table 3, read-out: IC50 on PDE-6
Sequence of bovine retinal PDE-6 (Bos taurus (Bovine), UniProt P11541+P23439) (P11541 whole entry, looked up): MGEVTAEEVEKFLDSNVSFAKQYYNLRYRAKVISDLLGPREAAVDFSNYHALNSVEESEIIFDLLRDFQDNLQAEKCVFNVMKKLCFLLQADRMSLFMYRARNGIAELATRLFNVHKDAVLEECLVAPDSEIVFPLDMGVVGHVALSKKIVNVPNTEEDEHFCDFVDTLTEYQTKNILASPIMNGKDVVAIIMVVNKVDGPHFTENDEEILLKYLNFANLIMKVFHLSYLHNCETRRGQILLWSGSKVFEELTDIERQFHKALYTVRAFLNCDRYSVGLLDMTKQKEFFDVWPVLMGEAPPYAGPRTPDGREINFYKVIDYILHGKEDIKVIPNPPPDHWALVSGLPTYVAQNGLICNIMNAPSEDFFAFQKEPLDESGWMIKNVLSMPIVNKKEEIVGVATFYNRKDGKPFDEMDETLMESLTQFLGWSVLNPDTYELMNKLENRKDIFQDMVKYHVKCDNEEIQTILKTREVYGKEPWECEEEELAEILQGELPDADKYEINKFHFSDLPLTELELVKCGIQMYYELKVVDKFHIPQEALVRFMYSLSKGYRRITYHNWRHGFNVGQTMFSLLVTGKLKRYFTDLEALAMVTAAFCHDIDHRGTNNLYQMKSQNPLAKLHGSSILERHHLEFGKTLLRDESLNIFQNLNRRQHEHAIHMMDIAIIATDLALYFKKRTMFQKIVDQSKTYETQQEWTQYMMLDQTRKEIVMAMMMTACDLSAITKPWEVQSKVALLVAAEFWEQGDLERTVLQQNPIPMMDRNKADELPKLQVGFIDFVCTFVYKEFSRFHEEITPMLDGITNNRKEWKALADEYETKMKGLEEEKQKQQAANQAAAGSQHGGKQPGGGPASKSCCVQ
Sequence of bovine retinal PDE-6 (Bos taurus (Bovine), UniProt P11541+P23439) (P23439 whole entry, looked up): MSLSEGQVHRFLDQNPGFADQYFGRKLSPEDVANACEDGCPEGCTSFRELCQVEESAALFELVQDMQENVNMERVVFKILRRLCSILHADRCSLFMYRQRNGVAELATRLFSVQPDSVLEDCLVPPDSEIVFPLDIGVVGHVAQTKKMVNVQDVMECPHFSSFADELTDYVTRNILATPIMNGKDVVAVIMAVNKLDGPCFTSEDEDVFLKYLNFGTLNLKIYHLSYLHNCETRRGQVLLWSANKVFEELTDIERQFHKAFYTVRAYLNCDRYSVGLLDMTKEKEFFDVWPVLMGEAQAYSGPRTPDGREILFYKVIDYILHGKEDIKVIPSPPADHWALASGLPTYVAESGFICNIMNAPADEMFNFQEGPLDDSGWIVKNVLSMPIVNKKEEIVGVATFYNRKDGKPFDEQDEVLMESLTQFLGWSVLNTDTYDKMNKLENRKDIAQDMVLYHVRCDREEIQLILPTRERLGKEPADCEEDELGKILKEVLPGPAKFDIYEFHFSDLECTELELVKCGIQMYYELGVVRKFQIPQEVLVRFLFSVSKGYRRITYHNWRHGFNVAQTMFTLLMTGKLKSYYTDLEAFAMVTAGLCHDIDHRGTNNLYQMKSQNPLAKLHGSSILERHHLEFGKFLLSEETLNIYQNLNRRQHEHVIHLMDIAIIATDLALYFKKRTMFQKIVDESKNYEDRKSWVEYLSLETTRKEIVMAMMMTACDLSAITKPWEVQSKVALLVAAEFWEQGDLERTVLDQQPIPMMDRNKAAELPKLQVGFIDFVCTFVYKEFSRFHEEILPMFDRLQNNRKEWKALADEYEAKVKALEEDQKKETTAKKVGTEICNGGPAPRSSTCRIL
Method: as §1, §2, §3

[13] = po, intragastric administration, 2 mg/kg
[14] = po, intragastric administration, 5 mg/kg

| SMILES | half-life [1] | bioavailability [3, 13] [%] | AUC(0-inf) ([3]; intravenous injection, 2 mg/kg) [µg·h/mL] | Cl_obs ([3]; intravenous injection, 2 mg/kg) [L/h/kg] | Vss_obs ([3]; intravenous injection, 2 mg/kg) [L/kg] | pIC50 [4] | AUC of penis length ([5]; Table 6, 2 mL/kg) [mm × min] | AUC of penis length [7] [mm × min] | pIC50 [9] | AUC of penis length [10] [mm × min] | selectivity on PDE-5 enzyme versus PDE-6 (in words) [11] | IC50 [12] [nM] | IC50 [9] [nM] | pIC50 [12] | other results |
| --- | --- | --- | --- | --- | --- | --- | --- | --- | --- | --- | --- | --- | --- | --- | --- |
| COc1ccc(CN=c2[nH]c(N3CCC[C@H]3CO)ncc2C(=O)NCc2ncccn2)cc1Cl [Avanafil, reference compound] | about 1.2 h | 4.5 | 0.382 | 5.31 | 3.56 | 4.84 | 421.2 | 199.4 | – | – | – | – | – | – | ratio PDE-6/5 [2]: about 120; AUC(0-inf) [3, 13]: 0.05 µg·h/mL; Cmax [3, 13]: 0.018 µg/mL; Tmax [3, 13]: 0.33 h; AUC of penis length ([5]; Table 5, 1 mL/kg): 317.9 mm × min; inhibitory effect on PDE-11 [6]: no inhibitory effect on PDE-11 |
| COc1ccc(CNc2nc(N3CC4CC4C3)ncc2C(=O)NCc2ccccc2)cc1Cl (stereo not drawn) [Compound 3, N-benzyl-2-(3-azabicyclo[3.1.0]hexan-3-yl)-4-((3-chloro-4-methoxybenzyl)amino)pyrimidine-5-formamide] | – | – | – | – | – | < 4.56 | – | – | 9.04 | 46.26 | higher selectivity on PDE-5 enzyme than to PDE-6 | 8.89 | – | – | pIC50 [8]: 7.89; inhibitory effect on hERG channel (in words) ([4]; human, CHO-K1 cells stably expressing hERG channel, pH 7.4): none of Compound 3, 11 and 50 of the present invention had a significant inhibitory effect |
| CN1CC(=O)N2[C@H](c3ccc4c(c3)OCO4)c3[nH]c4ccccc4c3C[C@@H]2C1=O [Tadalafil] | about 16 h | – | – | – | – | – | – | – | – | – | – | – | – | – | – |
| COc1ccc(CNc2nc(N3CC4CC4C3)ncc2C(=O)N[C@H]2CC[C@H](O)CC2)cc1F (stereo partly drawn) [Compound 48, 2-(3-azabicyclo[3.1.0]hexan-3-yl)-4-((3-fluoro-4-methoxybenzyl)amino)-N-(trans-4-hydroxycyclohexyl)pyrimidine-5-formamide] | – | – | 2.06 | 1.02 | 4.59 | 5.06 | – | – | 8.10 | – | higher selectivity on PDE-5 enzyme than to PDE-6 | 1110 | 7.99 | 5.95 | AUC(0-inf) [3, 14]: 2.33 µg·h/mL; Cmax [3, 14]: 0.415 µg/mL; Tmax [3, 14]: 2 h; half-life [3, 14]: 2 h; bioavailability [3, 14]: 63%; half-life ([3]; intravenous injection, 2 mg/kg): 4.4 h; inhibitory effect on hERG channel (in words) [4]: slight inhibitory effect; Selectivity (PDE-6/PDE-5) ([11]; IC50 for PDE-6/IC50 for PDE-5): 140 |
| COc1ccc(CNc2nc(N3CCC4(CC4)C3)ncc2C(=O)N[C@H]2CC[C@H](O)CC2)cc1Cl [Compound 38, 4-((3-chloro-4-methoxybenzyl)amino)-N-(trans-4-hydroxycyclohexyl)-2-(5-azaspiro[2.4]heptan-5-yl)pyrimidine-5-formamide] | – | 35 | – | – | – | – | 772.8 | 802.7 | 9.10 | 654.0 | – | 58 | 0.8 | 7.24 | half-life [3, 13]: 2.11 h; half-life ([3]; intravenous injection, 1 mg/kg): 3.5 h; Cl_obs ([3]; intravenous injection, 1 mg/kg): 1.01 L/h/kg; Vss_obs ([3]; intravenous injection, 1 mg/kg): 4.47 L/kg |
